Experimental data from US9873883B2, “Glyphosate resistant plants and associated methods” (Dow AgroSciences LLC, priority 2012, dated 2018).

Columns and labels:
[1] = target: T1, Mariprofundus ferrooxydans EPSP synthase DGT-14 v1, native wild type (GENBANK ZP_01452683; SEQ ID NO:17) (Mariprofundus ferrooxydans, UniProt Q0EYT4); experiment: In vitro kinetic assay (inorganic phosphate production, malachite green); format: biochemical; details: IC50 (glyphosate)
T1 construct: pET28, N-terminal 6xHis and thrombin site, E. coli, IMAC purified
Protocol: One enzyme that was identified was DGT-14 (GENBANK ACC NO: ZP_01452683) from Manprofundus ferrooxydans. […] One of these enzymes, DGT-11 (SEQ ID NO:5), contains a natural alanine at an analogous position within the EPSP synthase enzyme as that of the G96A mutation which was introduced into the E. coli version of the enzyme.
Site directed mutagenesis was carried out on the synthetic dgt-14 v6 to confirm the role of the alanine that was introduced at the glycine residue of amino acid residue 101. THE QUICK CHANGE II® kit from Stratagene (Santa Clara, Calif.) was used to perform the mutagenesis. The following primers were designed to make the amino acid switch. […]
Cell pellets from 1 L cultures were resuspended in 20-30 mL Buffer A (50 mM HEPES pH 7.5, 150 mM KCl, 2 mM DTT, 1 mM EDTA, 20 mM imidazole, and 5% glycerol). […] Samples were typically diluted 1:50 and the UV-visible spectrum was recorded from 240-700 nm on a Cary50 Bio UV-visible spectrophotometer. A theoretical extinction coefficient was then used to calculate the protein concentration based on the absorbance at 280 nm (ExPASy, Geneva, Switzerland).
The enzyme activities of wild-type (WT) and mutant DGTs were measured by inorganic phosphate (Pi) production in a modified procedure described by Lanzetta et al., (1979). […]

[2] = system: bacterial EPSP synthase DGT-12 (GENBANK ZP_01622155.1) variant DGT-12 v6 (G→A at residue 111), SEQ ID NO:7; experiment: as above; format: biochemical
Description: The novel DGT-14, DGT-12, DGT-18, DGT-29 and DGT-30 enzymes were obtained and the glycine to alanine mutation was introduced into the EPSP synthase enzymes at a location analogous to the G96A location described for the E. coli version of the EPSP synthase enzyme. The DGT-14 protein sequence was modified by introducing an alanine to replace the endogenous glycine of GENBANK ACC NO: ZP_01452683 at amino acid residue 101, thereby resulting in SEQ ID NO:1. The DGT-12 protein sequence was modified by introducing an alanine to replace the endogenous glycine of GENBANK ACC NO: ZP_01622155.1 at amino acid residue 111, thereby resulting in SEQ ID NO:7. The DGT-18 protein sequence was modified by introducing an alanine to replace the endogenous glycine of GENBANK ACC NO: NP_928909.1 at amino acid residue 96, thereby resulting in SEQ ID NO:9. The DGT-29 protein sequence was modified by introducing an alanine to replace the endogenous glycine of GENBANK ACC NO: YP_322772.1 at amino acid residue 96, thereby resulting in SEQ ID NO:11. The DGT-30 protein sequence was modified by introducing an alanine to replace the endogenous glycine of GENBANK ACC NO: ZP_02156189.1 at amino acid residue 96, thereby resulting in SEQ ID NO:13.
The synthesized genes were cloned into the pET28 expression vector.
Recombinant DGT proteins were overexpressed in Rosetta2™ (DE3) cells (Novagen, Madison, Wis.) from the constructs described above. A single colony was used to inoculate 50 mL starter cultures of LB containing chloramphenicol (25 μg/mL) and kanamycin (50 μg/mL) which were cultivated overnight at 37° C. The overnight cultures were used to inoculate 1 L of LB containing chloramphenicol (25 μg/mL) and kanamycin (50 μg/mL). The cultures were grown at 37° C. to an O.D.600=0.6 then placed in an ice water bath for 10 minutes. Expression of the target proteins was achieved by addition of IPTG to a final concentration of 500 μM. Induction was allowed to proceed overnight at 20° C. followed by harvesting via centrifugation at 8,000 rpm for 20 minutes. […]

Compound	IC50 ([1]; at 60 μM PEP) [mM]	IC50 ([1]; at 1 mM PEP) [mM]	IC50 ([2]; at 1 mM PEP, read-out: IC50 (glyphosate)) [mM]	kcat/Km ([2]; PEP, pH 7.5, 1 mM S3P) [M⁻¹ s⁻¹]	Km ([2]; read-out: Km for PEP, pH 7.5, 1 mM S3P) [µM]
O=C(O)CNCP(=O)(O)O [glyphosate, N-(phosphonomethyl)glycine]	0.44	> 20.2	4		
C=C(OP(=O)(O)O)C(=O)O [PEP, phosphoenolpyruvate]				700	128
